From US10398142B2, “Polycationic amphiphiles as antimicrobial agents” (priority 2013, dated 2019)
Read-outs that look alike come from different tables or passages of the source. Marks after values point to notes of the source that are not given here.

Key:
[1] = tested on: Enterococcus faecalis (OG1RF); experiment: Minimum inhibitory concentration (MIC), broth microdilution; type: cell-based; settings: read-out: MIC E. faecalis
Procedure, shortened: (§1)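 Broth microdilution: two-fold serial dilutions (twelve concentrations) mixed 1:1 with overnight cultures diluted to ca. 10^6 cfu/mL in Mueller-Hinton media, incubated statically at 37° C for 72 hours. MIC is lowest concentration with no growth visible to the naked eye, majority of three independent experiments.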

[2] = tested on: Escherichia coli (MC4100); experiment: as above; type: cell-based; settings: read-out: MIC E. coli
Procedure, shortened: as §1

[3] = tested on: Pseudomonas aeruginosa (PAO1); experiment: as above; type: cell-based; settings: read-out: MIC P. aeruginosa
Procedure, shortened: as §1

[4] = tested on: Staphylococcus aureus MSSA (SH1000); experiment: as above; type: cell-based
Procedure, shortened: as §1

CA-MRSA (USA300-0114) [5] = experiment: as above; type: cell-based, Staphylococcus aureus; settings: Table 4; USA300-0114; read-out: MIC CA-MRSA
Procedure, shortened: (§2)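 Two-fold serial dilutions (twelve concentrations) from aqueous stock; inoculum ca. 10^6 cfu/mL in Mueller-Hinton media, static incubation at 37 °C for 72 h. MIC read visually as lowest concentration with no visible growth, majority of three independent experiments.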

HA-MRSA (ATCC 33591) = experiment: as above; type: cell-based, Staphylococcus aureus; settings: Table 4; ATCC 33591; read-out: MIC HA-MRSA
Procedure, shortened: as §2

[6] = tested on: S. aureus (MSSA, SH1000) biofilms; experiment: Minimum biofilm eradication concentration (MBEC), regrowth assay; type: cell-based, Staphylococcus aureus; settings: for MBEC MSSA: Table 5, SH1000
Procedure, shortened: (§3)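 Static 24 h biofilms at 37° C. (BHI for S. aureus, Todd Hewitt for E. faecalis), then 16 h compound exposure, PBS washes and overnight regrowth in fresh media. MBEC is the lowest concentration giving final OD595 below 0.1; four replicates per concentration.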

E. faecalis biofilms = experiment: as above; type: cell-based, Enterococcus faecalis
Procedure, shortened: as §3

[7] = tested on: CA-MRSA (USA300-0114) biofilms; experiment: as above; type: cell-based, Staphylococcus aureus; settings: Table 5; USA300-0114
Procedure, shortened: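 CA-MRSA USA300-0114 biofilms grown statically 24 h at 37 °C in BHI, then exposed to compound for 16 h at 37 °C. After PBS washes, biofilms regrown overnight in fresh media; MBEC is the lowest concentration giving OD595 below 0.1, four replicates per concentration.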

[8] = tested on: red blood cells (defibrinated sheep blood); experiment: Hemolysis assay (Lysis20); settings: Table 4; concentration at which less than 20% of red blood cells are lysed
Procedure, shortened: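 Defibrinated sheep red blood cells were incubated with compounds serially diluted in PBS, and the suspensions were read by OD. 1% Triton X served as 100% lysis and PBS as 0% lysis. Lysis20 is the concentration (μM) at which less than 20% of cells are lysed.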

CA-MRSA (USA300-0114) [9] = experiment: Resistance development, liquid culture serial passage; type: cell-based, Staphylococcus aureus; settings: over 24 days (>500 generations)
Method: (§4) Resistance development such as liquid culture resistance assay was performed. […] Once a day, an aliquot of bacterial culture from the highest concentration allowing bacterial growth was diluted 1:10,000 in fresh media containing a range of antibacterial compound. This process was repeated for several hundred generations.
(§5) Resistance Development Assays: Liquid culture serial passage protocols, in which bacteria are successively grown at sub-lethal concentrations of antibacterial compound, were employed.

MSSA (SH1000) = experiment: as above; type: cell-based, Staphylococcus aureus; settings: over 24 days (>500 generations)
Method: as §4, §5

S. aureus biofilms = experiment: Crystal violet staining and confocal microscopy of pre-established biofilms; type: cell-based, Staphylococcus aureus; settings: compared to the aqueous control or norspermidine; 16 h post-treatment
Method: Left: Submerged S. aureus biofilms 16 h post-treatment with the indicated final well concentration of compound. Middle: Biofilms stained with 1% crystal violet. Right: Confocal microscopy images of biofilms 16 h post-treatment.
The inventors have determined that both cationic character and alkyl side chains are important for biofilm eradication.

[10] = tested on: Staphylococcus aureus, Enterococcus faecalis, Escherichia coli and Pseudomonas aeruginosa; experiment: MIC, summary statements over the four bacteria; type: cell-based; settings: comparison of MIC values
Method: The term “minimum inhibitory concentration (MIC)” means the lowest concentration of an antimicrobial agent that will inhibit the visible growth of a microorganism after overnight incubation. MIC values against bacteria, for example, the Gram-positive Staphylococcus aureus and Enterococcus faecalis and the Gram-negative Escherichia coli and Pseudomonas aeruginosa were determined by standard methods. See also P. A. Wayne, Methods for Dilution Antimicrobial Tests for Bacteria that Grow Aerobically; Approved Standard, Ninth Edition, 2012, CLSI Document M07-A9, Vol. 32 No. 2.
With nearly three-dozen amphiphiles varying in structure and cationic nature synthesized, minimum inhibitory concentration (MIC) values against the Gram-positive Staphylococcus aureus and Enterococcus faecalis and the Gram-negative Escherichia coli and Pseudomonas aeruginosa were determined by standard methods. […] The commercially available antibacterial agent benzalkonium chloride (benzyldimethyldodecylammonium chloride, Bn,12) was tested for comparison. The broth microdilution for determining MIC values was performed as previously reported.
MIC variation mostly hinged on the length of alkyl chain, where the dodecyl chain was generally found to be optimal. […]

[11] = Table 4, SH1000, read-out: MIC MSSA
[12] = Table 2, pre-established biofilm, ± values varied between 50 and 100 μM for the six trials
[13] = Table 3, read-out: MIC S. aureus

CCCCCCCCCCCC[N+](C)(C)CCC[N+](C)(C)CCCCCCCCCCCC.[Br-].[Br-] [12,3,12]
MIC ([1]; Table 1): 1 µM
MIC ([2]; Table 1): 1 µM
MIC ([3]; Table 1): 4 µM
MIC ([4]; Table 1, read-out: MIC S. aureus): 2 µM
MIC [4, 11]: 2 µM
MIC (CA-MRSA (USA300-0114) [5]): 1 µM
MIC (HA-MRSA (ATCC 33591)): 2 µM
MBEC S. aureus [6, 12]: 100 µM
MBEC MSSA [6]: 75 ± 25 µM
MBEC E. faecalis (E. faecalis biofilms; [12]): 75 ± 25^a μM
MBEC E. faecalis (E. faecalis biofilms; Table 5): 50 µM
MBEC CA-MRSA [7]: 100 µM
Lysis20 [8]: 8 µM
resistance in serial passage, CA-MRSA (USA300-0114) (CA-MRSA (USA300-0114) [9]): No resistance was observed
resistance in serial passage, MSSA (MSSA (SH1000)): No resistance was observed
effect against pre-established biofilms, crystal violet staining (S. aureus biofilms): significant effect

CCCCCCCCCCCC[N+](C)(C)CCN(C)CCN(C)CC[N+](C)(C)CCCCCCCCCCCC.[Br-].[Br-] [N4-12,0,0,12]
MIC ([1]; Table 3): 1 µM
MIC ([2]; Table 3): 1 µM
MIC ([3]; Table 3): 4 µM
MIC [4, 13]: 1 µM
MIC [4, 11]: 1 µM
MIC (CA-MRSA (USA300-0114) [5]): 1 µM
MIC (HA-MRSA (ATCC 33591)): 1 µM
MBEC MSSA [6]: 50 µM
MBEC E. faecalis (E. faecalis biofilms; Table 5): 75 ± 25 µM
MBEC CA-MRSA [7]: 100 µM
Lysis20 [8]: 4 µM
fold more bioactive than (N4-12,0,0,0) [10]: about 8 fold

C=CC[N+](C)(CC[N+](C)(C)CCCCCCCCCCCC)CC[N+](C)(CC=C)CC[N+](C)(C)CCCCCCCCCCCC.[Br-].[Br-].[Br-].[Br-] (stereo not drawn) [N4-12,3A,3A,12]
MIC ([1]; Table 3): 1 µM
MIC ([2]; Table 3): 1 µM
MIC ([3]; Table 3): 2 µM
MIC [4, 13]: 1 µM
MIC [4, 11]: 1 µM
MIC (CA-MRSA (USA300-0114) [5]): 1 µM
MIC (HA-MRSA (ATCC 33591)): 0.5 µM
MBEC MSSA [6]: 100 µM
MBEC E. faecalis (E. faecalis biofilms; Table 5): 200 µM
MBEC CA-MRSA [7]: 150 ± 50 µM
Lysis20 [8]: 8 µM
resistance in serial passage, CA-MRSA (USA300-0114) (CA-MRSA (USA300-0114) [9]): No resistance was observed
resistance in serial passage, MSSA (MSSA (SH1000)): No resistance was observed
fold more bioactive than (N4-12,0,0,0) [10]: about 8 fold
